{"source": "paper PMC6494879", "about": "“Drug resistance emergence in macaques administered cabotegravir long-acting for pre-exposure prophylaxis during acute SHIV infection” (Nature Communications, 2019)", "key": {"[1]": {"test_system": "RT-SHIV", "experiment": "Plasma SHIV RNA (RT-PCR) in RT-SHIV-infected macaques treated with CAB LA", "conditions": "for Median VL treated: median of treated macaques", "description": "CAB LA (200 mg/mL injectable stock aqueous suspension) was given at a dose of 50 mg kg^−1 under anesthesia by intramuscular injection into the quadriceps. Volumes greater than 1.0 mL were divided into two injection sites."}, "[2]": {"test_system": "SIV integrase WT (SIV IN RTV pseudovirus)", "experiment": "organism not typed", "type": "cell-based"}}, "note": "pEC50: −log10 of the molar value."}
{"smiles": "C[C@H]1CO[C@@H]2Cn3cc(C(=O)NCc4ccc(F)cc4F)c(=O)c(O)c3C(=O)N12", "note": "[CAB, cabotegravir]", "values": [{"measurement": "SHIV RNA copies/ml", "setting": "[1]; macaque CH54, day 25", "result": 279, "unit": "copies/ml"}, {"measurement": "SHIV RNA copies/ml", "setting": "[1]; macaque CH54, day 29", "result": 2506, "unit": "copies/ml"}, {"measurement": "SHIV RNA copies/ml", "setting": "[1]; macaque CH54, day 32", "result": 3049, "unit": "copies/ml"}, {"measurement": "SHIV RNA copies/ml", "setting": "[1]; macaque CH54, day 36", "result": 1291, "unit": "copies/ml"}, {"measurement": "SHIV RNA copies/ml", "setting": "[1]; macaque CH54, day 39", "result": 1031, "unit": "copies/ml"}, {"measurement": "SHIV RNA copies/ml", "setting": "[1]; macaque CH54, day 43", "result": 750, "unit": "copies/ml"}, {"measurement": "SHIV RNA copies/ml", "setting": "[1]; macaque CH54, day 46", "result": 485, "unit": "copies/ml"}, {"measurement": "SHIV RNA copies/ml", "setting": "[1]; macaque CH54, day 50", "result": 803, "unit": "copies/ml"}, {"measurement": "SHIV RNA copies/ml", "setting": "[1]; macaque CH54, day 53", "result": 49, "unit": "copies/ml"}, {"measurement": "SHIV RNA copies/ml", "setting": "[1]; macaque CH54, day 57", "result": 158, "unit": "copies/ml"}, {"measurement": "SHIV RNA copies/ml", "setting": "[1]; macaque CH54, day 60", "result": 2633, "unit": "copies/ml"}, {"measurement": "SHIV RNA copies/ml", "setting": "[1]; macaque CH54, day 64", "result": 1132, "unit": "copies/ml"}, {"measurement": "SHIV RNA copies/ml", "setting": "[1]; macaque CH54, day 67", "result": 4979, "unit": "copies/ml"}, {"measurement": "SHIV RNA copies/ml", "setting": "[1]; macaque CJ92, day 14", "result": 87372, "unit": "copies/ml"}, {"measurement": "SHIV RNA copies/ml", "setting": "[1]; macaque CJ92, day 16", "result": 9159, "unit": "copies/ml"}, {"measurement": "SHIV RNA copies/ml", "setting": "[1]; macaque CJ92, day 18", "result": 1727, "unit": "copies/ml"}, {"measurement": "SHIV RNA copies/ml", "setting": "[1]; macaque CJ92, day 22", "result": 101, "unit": "copies/ml"}, {"measurement": "SHIV RNA copies/ml", "setting": "[1]; macaque CJ92, day 25", "result": 49, "unit": "copies/ml"}, {"measurement": "SHIV RNA copies/ml", "setting": "[1]; macaque CJ92, day 29", "result": 423, "unit": "copies/ml"}, {"measurement": "SHIV RNA copies/ml", "setting": "[1]; macaque CJ92, day 32", "result": 300, "unit": "copies/ml"}, {"measurement": "SHIV RNA copies/ml", "setting": "[1]; macaque CJ92, day 36", "result": 57, "unit": "copies/ml"}, {"measurement": "SHIV RNA copies/ml", "setting": "[1]; macaque CJ92, day 39", "result": 270, "unit": "copies/ml"}, {"measurement": "SHIV RNA copies/ml", "setting": "[1]; macaque CJ92, day 43", "result": 49, "unit": "copies/ml"}, {"measurement": "SHIV RNA copies/ml", "setting": "[1]; macaque CJ92, day 46", "result": 108, "unit": "copies/ml"}, {"measurement": "SHIV RNA copies/ml", "setting": "[1]; macaque CJ92, day 50", "result": 163, "unit": "copies/ml"}, {"measurement": "SHIV RNA copies/ml", "setting": "[1]; macaque CJ92, day 53", "result": 49, "unit": "copies/ml"}, {"measurement": "SHIV RNA copies/ml", "setting": "[1]; macaque CJ92, day 57", "result": 49, "unit": "copies/ml"}, {"measurement": "SHIV RNA copies/ml", "setting": "[1]; macaque CJ92, day 60", "result": 49, "unit": "copies/ml"}, {"measurement": "SHIV RNA copies/ml", "setting": "[1]; macaque CJ92, day 64", "result": 49, "unit": "copies/ml"}, {"measurement": "SHIV RNA copies/ml", "setting": "[1]; macaque CJ92, day 67", "result": 50, "unit": "copies/ml"}, {"measurement": "Median VL treated", "setting": "[1]; day 0", "result": 49, "unit": "copies/ml"}, {"measurement": "Median VL treated", "setting": "[1]; day 2", "result": 21683, "unit": "copies/ml"}, {"measurement": "Median VL treated", "setting": "[1]; day 4", "result": 196903, "unit": "copies/ml"}, {"measurement": "Median VL treated", "setting": "[1]; day 7", "result": 674920, "unit": "copies/ml"}, {"measurement": "Median VL treated", "setting": "[1]; day 9", "result": 6944678, "unit": "copies/ml"}, {"measurement": "Median VL treated", "setting": "[1]; day 11", "result": 4288688, "unit": "copies/ml"}, {"measurement": "Median VL treated", "setting": "[1]; day 14", "result": 167021, "unit": "copies/ml"}, {"measurement": "Median VL treated", "setting": "[1]; day 16", "result": 25119, "unit": "copies/ml"}, {"measurement": "Median VL treated", "setting": "[1]; day 18", "result": 5906, "unit": "copies/ml"}, {"measurement": "Median VL treated", "setting": "[1]; day 22", "result": 688, "unit": "copies/ml"}, {"measurement": "Median VL treated", "setting": "[1]; day 25", "result": 322, "unit": "copies/ml"}, {"measurement": "Median VL treated", "setting": "[1]; day 29", "result": 1263, "unit": "copies/ml"}, {"measurement": "Median VL treated", "setting": "[1]; day 32", "result": 345, "unit": "copies/ml"}, {"measurement": "Median VL treated", "setting": "[1]; day 36", "result": 160, "unit": "copies/ml"}, {"measurement": "Median VL treated", "setting": "[1]; day 39", "result": 293, "unit": "copies/ml"}, {"measurement": "Median VL treated", "setting": "[1]; day 43", "result": 192, "unit": "copies/ml"}, {"measurement": "Median VL treated", "setting": "[1]; day 46", "result": 92, "unit": "copies/ml"}, {"measurement": "Median VL treated", "setting": "[1]; day 50", "result": 229, "unit": "copies/ml"}, {"measurement": "Median VL treated", "setting": "[1]; day 53", "result": 60, "unit": "copies/ml"}, {"measurement": "Median VL treated", "setting": "[1]; day 57", "result": 91, "unit": "copies/ml"}, {"measurement": "Median VL treated", "setting": "[1]; day 60", "result": 69, "unit": "copies/ml"}, {"measurement": "Median VL treated", "setting": "[1]; day 64", "result": 429, "unit": "copies/ml"}, {"measurement": "Median VL treated", "setting": "[1]; day 67", "result": 85, "unit": "copies/ml"}, {"measurement": "Median VL treated", "setting": "[1]; day 71", "result": 205, "unit": "copies/ml"}, {"measurement": "Median VL treated", "setting": "[1]; day 74", "result": 49, "unit": "copies/ml"}, {"measurement": "Median VL treated", "setting": "[1]; day 78", "result": 76, "unit": "copies/ml"}, {"measurement": "Median VL treated", "setting": "[1]; day 81", "result": 64, "unit": "copies/ml"}, {"measurement": "Median VL treated", "setting": "[1]; day 85", "result": 85, "unit": "copies/ml"}, {"measurement": "Median VL treated", "setting": "[1]; day 88", "result": 61, "unit": "copies/ml"}, {"measurement": "Median VL treated", "setting": "[1]; day 92", "result": 59, "unit": "copies/ml"}, {"measurement": "Median VL treated", "setting": "[1]; day 95", "result": 80, "unit": "copies/ml"}, {"measurement": "Median VL treated", "setting": "[1]; day 102", "result": 49, "unit": "copies/ml"}, {"measurement": "Median VL treated", "setting": "[1]; day 106", "result": 61, "unit": "copies/ml"}, {"measurement": "Median VL treated", "setting": "[1]; day 115", "result": 2657, "unit": "copies/ml"}, {"measurement": "Median VL treated", "setting": "[1]; day 120", "result": 15539, "unit": "copies/ml"}, {"measurement": "Median VL treated", "setting": "[1]; day 134", "result": 2817, "unit": "copies/ml"}, {"measurement": "Median VL treated", "setting": "[1]; day 143", "result": 2103, "unit": "copies/ml"}, {"measurement": "Median VL treated", "setting": "[1]; day 148", "result": 2164, "unit": "copies/ml"}, {"measurement": "Median VL treated", "setting": "[1]; day 155", "result": 1667, "unit": "copies/ml"}, {"measurement": "Median VL treated", "setting": "[1]; day 162", "result": 1714, "unit": "copies/ml"}, {"measurement": "Median VL treated", "setting": "[1]; day 170", "result": 1307, "unit": "copies/ml"}, {"measurement": "Median VL treated", "setting": "[1]; day 176", "result": 558, "unit": "copies/ml"}, {"measurement": "Median VL treated", "setting": "[1]; day 183", "result": 4928, "unit": "copies/ml"}, {"measurement": "Median VL treated", "setting": "[1]; day 190", "result": 6516, "unit": "copies/ml"}, {"measurement": "Median VL treated", "setting": "[1]; day 197", "result": 8692, "unit": "copies/ml"}, {"measurement": "Median VL treated", "setting": "[1]; day 204", "result": 9657, "unit": "copies/ml"}, {"measurement": "pEC50", "setting": "[2]; HEK293", "result": 8.92}, {"measurement": "fold-change relative to wild type integrase", "setting": "[2]; WT SIV integrase", "result": 1, "unit": "fold"}]}
